Data from patent EP4691482A1, “LONG-ACTING CALCITONIN ANALOG” (Chengdu Aoda Biotechnology Co., Ltd., priority 2023, dated 2024).

Target: T1, calcitonin receptors (CTR) (Homo sapiens, UniProt P30988)
T1 construct: expressed in transfected cells; host or cells: cAMP Hunter HEK293-CT-R Gs cell line (HEK293, stably transfected)
T1 sequence (P30988 25-474): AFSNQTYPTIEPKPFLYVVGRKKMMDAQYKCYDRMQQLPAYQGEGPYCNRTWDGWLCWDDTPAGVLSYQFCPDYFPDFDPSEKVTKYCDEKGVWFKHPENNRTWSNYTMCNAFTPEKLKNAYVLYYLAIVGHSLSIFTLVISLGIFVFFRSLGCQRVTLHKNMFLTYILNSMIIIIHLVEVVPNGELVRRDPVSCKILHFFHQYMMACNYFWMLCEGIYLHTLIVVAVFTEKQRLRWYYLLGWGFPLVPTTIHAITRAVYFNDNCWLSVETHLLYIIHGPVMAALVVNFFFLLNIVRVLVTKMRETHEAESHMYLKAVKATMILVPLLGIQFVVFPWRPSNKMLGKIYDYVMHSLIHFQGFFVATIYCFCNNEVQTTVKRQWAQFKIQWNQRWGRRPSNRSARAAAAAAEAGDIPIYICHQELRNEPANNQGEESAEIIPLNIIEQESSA
Assay: cAMP determination (HTRF, cAMP Dynamic 2 Kit) in cAMP Hunter HEK293-CT-R Gs cell line
Format: cell-based
Details: HEK293 cell line stably expressing CT-R; intracellular cAMP, HTRF
Source text: Upon activation by a ligand, Gas-coupled GPCRs can upregulate intracellular cAMP level, and cAMP, as a second messenger, can mediate a series of cellular responses. The cAMP Hunter HEK293-CT-R Gs cell line, which overexpresses Gas-coupled calcitonin receptors (CTR), was used. The binding of calcitonin (or an analog thereof) to the overexpressed CTR upregulates intracellular cAMP level. The amount of intracellular cAMP produced after activation by the calcitonin (or an analog thereof) was detected using a cAMP Dynamic 2 Kit to evaluate the biological activity of the calcitonin (or an analog thereof). HEK293 cell line stably expressing CT-R was used. Stably transfected cells were stimulated with various concentrations of agonists. The time-resolved fluorescence resonance energy signal from the cells after stimulation with different doses was measured using HTRF technology, from which the biological activity of the agonist was subsequently calculated.

Row | Compound | EC50
1 | CC(C)C[C@H](NC(=O)[C@H](CCCCN)NC(=O)CNC(=O)[C@H](CC(C)C)NC(=O)[C@@H](NC(=O)[C@@H]1CSSC[C@H](N)C(=O)N[C@@H](CO)C(=O)N[C@@H](CC(N)=O)C(=O)N[C@@H](CC(C)C)C(=O)N[C@@H](CO)C(=O)N[C@@H]([C@@H](C)O)C(=O)N1)C(C)C)C(=O)N[C@@H](CO)C(=O)N[C@@H](CCC(N)=O)C(=O)N[C@@H](CCC(=O)O)C(=O)N[C@@H](CC(C)C)C(=O)N[C@@H](Cc1c[nH]cn1)C(=O)N[C@@H](CCCCNC(=O)COCCOCCNC(=O)COCCOCCNC(=O)COCCOCCNC(=O)CC[C@H](NC(=O)CCCCCCCCCCCCCCCCCCC(=O)O)C(=O)O)C(=O)N[C@@H](CC(C)C)C(=O)N[C@@H](CCC(N)=O)C(=O)N[C@H](C(=O)N[C@@H](Cc1ccc(O)cc1)C(=O)N1CCC[C@H]1C(=O)N[C@@H](CCCNC(=N)N)C(=O)N[C@H](C(=O)N[C@@H](CC(N)=O)C(=O)N[C@H](C(=O)NCC(=O)N[C@@H](CO)C(=O)NCC(=O)N[C@H](C(=O)N1CCC[C@H]1C(N)=O)[C@@H](C)O)[C@@H](C)O)[C@@H](C)O)[C@@H](C)O [Compound 17, Cys-Ser-Asn-Leu-Ser-Thr-Cys-Val-Leu-Gly-Lys-Leu-Ser-Gln-Glu-Leu-His-Lys(AEEA-AEEA-AEEA-γGlu-eicosanedioic acid)-Leu-Gln-Thr-T yr-Pro-Arg-Thr-Asn-Thr-Gly-Ser-Gly-Thr-Pro-NH2] | 3.1 pM
2 | CC(C)C[C@H](NC(=O)[C@H](CCCCN)NC(=O)CNC(=O)[C@H](CC(C)C)NC(=O)[C@@H](NC(=O)[C@@H]1CSSC[C@H](N)C(=O)N[C@@H](CO)C(=O)N[C@@H](CC(N)=O)C(=O)N[C@@H](CC(C)C)C(=O)N[C@@H](CO)C(=O)N[C@@H]([C@@H](C)O)C(=O)N1)C(C)C)C(=O)N[C@@H](CO)C(=O)N[C@@H](CCC(N)=O)C(=O)N[C@@H](CCC(=O)O)C(=O)N[C@@H](CC(C)C)C(=O)N[C@@H](Cc1c[nH]cn1)C(=O)N[C@@H](CCCCNC(=O)CNC(=O)CNC(=O)CNC(=O)CNC(=O)CNC(=O)CC[C@H](NC(=O)CCCCCCCCCCCCCCCCCCC(=O)O)C(=O)O)C(=O)N[C@@H](CC(C)C)C(=O)N[C@@H](CCC(N)=O)C(=O)N[C@H](C(=O)N[C@@H](Cc1ccc(O)cc1)C(=O)N1CCC[C@H]1C(=O)N[C@@H](CCCNC(=N)N)C(=O)N[C@H](C(=O)N[C@@H](CC(N)=O)C(=O)N[C@H](C(=O)NCC(=O)N[C@@H](CO)C(=O)NCC(=O)N[C@H](C(=O)N1CCC[C@H]1C(N)=O)[C@@H](C)O)[C@@H](C)O)[C@@H](C)O)[C@@H](C)O [Compound 14] | 3.1 pM
3 | CC(C)C[C@H](NC(=O)[C@H](CCCCN)NC(=O)CNC(=O)[C@H](CC(C)C)NC(=O)[C@@H](NC(=O)[C@@H]1CSSC[C@H](N)C(=O)N[C@@H](CO)C(=O)N[C@@H](CC(N)=O)C(=O)N[C@@H](CC(C)C)C(=O)N[C@@H](CO)C(=O)N[C@@H]([C@@H](C)O)C(=O)N1)C(C)C)C(=O)N[C@@H](CO)C(=O)N[C@@H](CCC(N)=O)C(=O)N[C@@H](CCC(=O)O)C(=O)N[C@@H](CC(C)C)C(=O)N[C@@H](Cc1c[nH]cn1)C(=O)N[C@@H](CCCCNC(=O)COCCOCCNC(=O)COCCOCCNC(=O)CC[C@H](NC(=O)CCCCCCCCCCCCCCCCCCCCC(=O)O)C(=O)O)C(=O)N[C@@H](CC(C)C)C(=O)N[C@@H](CCC(N)=O)C(=O)N[C@H](C(=O)N[C@@H](Cc1ccc(O)cc1)C(=O)N1CCC[C@H]1C(=O)N[C@@H](CCCNC(=N)N)C(=O)N[C@H](C(=O)N[C@@H](CC(N)=O)C(=O)N[C@H](C(=O)NCC(=O)N[C@@H](CO)C(=O)NCC(=O)N[C@H](C(=O)N1CCC[C@H]1C(N)=O)[C@@H](C)O)[C@@H](C)O)[C@@H](C)O)[C@@H](C)O [Compound 21, Cys-Ser-Asn-Leu-Ser-Thr-Cys-Val-Leu-Gly-Lys-Leu-Ser-Gln-Glu-Leu-His-Lys(AEEA-AEEA-γGlu-docosanedioic acid)-Leu-Gln-Thr-Tyr-Pro -Arg-Thr-Asn-Thr-Gly-Ser-Gly-Thr-Pro-NH2] | 3.5 pM
4 | CC(C)C[C@H](NC(=O)[C@H](CCCCN)NC(=O)CNC(=O)[C@H](CC(C)C)NC(=O)[C@@H](NC(=O)[C@@H]1CSSC[C@H](N)C(=O)N[C@@H](CO)C(=O)N[C@@H](CC(N)=O)C(=O)N[C@@H](CC(C)C)C(=O)N[C@@H](CO)C(=O)N[C@@H]([C@@H](C)O)C(=O)N1)C(C)C)C(=O)N[C@@H](CO)C(=O)N[C@@H](CCC(N)=O)C(=O)N[C@@H](CCC(=O)O)C(=O)N[C@@H](CC(C)C)C(=O)N[C@@H](Cc1c[nH]cn1)C(=O)N[C@@H](CCCCNC(=O)CNC(=O)CNC(=O)CNC(=O)CNC(=O)CNC(=O)CNC(=O)CC[C@H](NC(=O)CCCCCCCCCCCCCCCCCCC(=O)O)C(=O)O)C(=O)N[C@@H](CC(C)C)C(=O)N[C@@H](CCC(N)=O)C(=O)N[C@H](C(=O)N[C@@H](Cc1ccc(O)cc1)C(=O)N1CCC[C@H]1C(=O)N[C@@H](CCCNC(=N)N)C(=O)N[C@H](C(=O)N[C@@H](CC(N)=O)C(=O)N[C@H](C(=O)NCC(=O)N[C@@H](CO)C(=O)NCC(=O)N[C@H](C(=O)N1CCC[C@H]1C(N)=O)[C@@H](C)O)[C@@H](C)O)[C@@H](C)O)[C@@H](C)O [Compound 15] | 6.5 pM
5 | CC(C)C[C@H](NC(=O)[C@H](CCCCN)NC(=O)CNC(=O)[C@H](CC(C)C)NC(=O)[C@@H](NC(=O)[C@@H]1CSSC[C@H](N)C(=O)N[C@@H](CO)C(=O)N[C@@H](CC(N)=O)C(=O)N[C@@H](CC(C)C)C(=O)N[C@@H](CO)C(=O)N[C@@H]([C@@H](C)O)C(=O)N1)C(C)C)C(=O)N[C@@H](CO)C(=O)N[C@@H](CCC(N)=O)C(=O)N[C@@H](CCC(=O)O)C(=O)N[C@@H](CC(C)C)C(=O)N[C@@H](Cc1c[nH]cn1)C(=O)N[C@@H](CCCCNC(=O)CNC(=O)CNC(=O)[C@H](CO)NC(=O)CNC(=O)[C@H](CO)NC(=O)CNC(=O)[C@H](CO)NC(=O)CNC(=O)CC[C@H](NC(=O)CCCCCCCCCCCCCCCCCCC(=O)O)C(=O)O)C(=O)N[C@@H](CC(C)C)C(=O)N[C@@H](CCC(N)=O)C(=O)N[C@H](C(=O)N[C@@H](Cc1ccc(O)cc1)C(=O)N1CCC[C@H]1C(=O)N[C@@H](CCCNC(=N)N)C(=O)N[C@H](C(=O)N[C@@H](CC(N)=O)C(=O)N[C@H](C(=O)NCC(=O)N[C@@H](CO)C(=O)NCC(=O)N[C@H](C(=O)N1CCC[C@H]1C(N)=O)[C@@H](C)O)[C@@H](C)O)[C@@H](C)O)[C@@H](C)O [Compound 9] | 4.1 pM

Same assay, conditions: relative to Salmon Calcitonin = 100.0; HEK293 CT-R cAMP

Row | Compound | Relative Activity%
6 | CC(C)C[C@H](NC(=O)[C@H](CCCCN)NC(=O)CNC(=O)[C@H](CC(C)C)NC(=O)[C@@H](NC(=O)[C@@H]1CSSC[C@H](N)C(=O)N[C@@H](CO)C(=O)N[C@@H](CC(N)=O)C(=O)N[C@@H](CC(C)C)C(=O)N[C@@H](CO)C(=O)N[C@@H]([C@@H](C)O)C(=O)N1)C(C)C)C(=O)N[C@@H](CO)C(=O)N[C@@H](CCC(N)=O)C(=O)N[C@@H](CCC(=O)O)C(=O)N[C@@H](CC(C)C)C(=O)N[C@@H](Cc1c[nH]cn1)C(=O)N[C@@H](CCCCNC(=O)COCCOCCOCCNC(=O)CC[C@H](NC(=O)CCCCCCCCCCCCCCCCCCCCC(=O)O)C(=O)O)C(=O)N[C@@H](CC(C)C)C(=O)N[C@@H](CCC(N)=O)C(=O)N[C@H](C(=O)N[C@@H](Cc1ccc(O)cc1)C(=O)N1CCC[C@H]1C(=O)N[C@@H](CCCNC(=N)N)C(=O)N[C@H](C(=O)N[C@@H](CC(N)=O)C(=O)N[C@H](C(=O)NCC(=O)N[C@@H](CO)C(=O)NCC(=O)N[C@H](C(=O)N1CCC[C@H]1C(N)=O)[C@@H](C)O)[C@@H](C)O)[C@@H](C)O)[C@@H](C)O [Compound 20, Cys-Ser-Asn-Leu-Ser-Thr-Cys-Val-Leu-Gly-Lys-Leu-Ser-Gln-Glu-Leu-His-Lys(PEG3CH2CO-γGlu-docosanedioic acid)-Leu-Gln-Thr-Tyr-Pro-Arg-Thr-Asn-Thr-Gly-Ser-Gly-Thr-Pro-NH2] | 296.9%
